Measured values published in US20240287138A1, “CYCLIC PEPTIDES FOR INHIBITING TNF RECEPTOR 1 ACTIVITY” (Merck Sharp & Dohme LLC, priority 2023, published 2024).
Numbered stars: 1 amine (or outer) side, 2 acyl side, 3 side chain; on linkers, the order of the positions; unused ones are H or OH. Bridge positions count the residues as written; N and C are the ends. Square brackets hold non-standard residues; d marks the D form. Peptide text beside a SMILES is read from it. * marks the point of attachment. Trp(βS-Me,7-OMe) = COc1cccc2c([C@H](C)[C@H](N)C(=O)O)c[nH]c12; X24 = O=C(O)c1ccc([C@@H](O)[C@H](N[*:1])C(=O)[*:2])cc1; X28 = NC(=O)c1ccc([C@H](O)[C@H](N[*:1])C(=O)[*:2])cc1; Trp(7-CN) = N#Cc1cccc2c(C[C@H](N)C(=O)O)c[nH]c12; Trp(7-Cl) = N[C@@H](Cc1c[nH]c2c(Cl)cccc12)C(=O)O; X29 = NC(=O)Cc1cccc(C[C@H](N[*:1])C(=O)[*:2])c1; Phe(4-CONH2) = NC(=O)c1ccc(C[C@H](N)C(=O)O)cc1; Phe(4-COOH) = N[C@@H](Cc1ccc(C(=O)O)cc1)C(=O)O; Trp(7-aza) = N[C@@H](Cc1c[nH]c2ncccc12)C(=O)O; Pip(5R-OH) = O=C(O)[C@@H]1CC[C@@H](O)CN1; X1 = O=C([C@@H]1CC[C@H](N[*:1])C1)[*:2]; X19 = O=C([C@H](Cc1ccncn1)N[*:1])[*:2]; Gly(N(CH2)3COOH) = O=C(O)CCCNCC(=O)O; Pip(4-aza) = O=C(O)[C@@H]1CNCCN1; 4Pal = N[C@@H](Cc1ccncc1)C(=O)O; NMeE = CN[C@@H](CCC(=O)O)C(=O)O; dHyp = O=C(O)[C@H]1C[C@H](O)CN1; Pip = O=C(O)[C@@H]1CCCCN1; αMeS = C[C@](N)(CO)C(=O)O; Nle = CCCC[C@H](N)C(=O)O; Sar = CNCC(=O)O; X22 = C1CC1C*

How the values were obtained:
[1] = molecular target: T1, TNFα-induced NF-κB signal transduction pathway (TNFR1 signaling) in THP-1 cells (Homo sapiens, UniProt P19438); assay: THP-1 Lucia NF-κB reporter cell assay, inhibition of TNFα-induced NF-κB signaling; format: cell-based; details: THP-1 NF-κB Lucia reporter cells, 10 ng/mL TNFα, 16-18 h, secreted luciferase; read-out: THP-1 IC50
T1 sequence (P19438 30-455): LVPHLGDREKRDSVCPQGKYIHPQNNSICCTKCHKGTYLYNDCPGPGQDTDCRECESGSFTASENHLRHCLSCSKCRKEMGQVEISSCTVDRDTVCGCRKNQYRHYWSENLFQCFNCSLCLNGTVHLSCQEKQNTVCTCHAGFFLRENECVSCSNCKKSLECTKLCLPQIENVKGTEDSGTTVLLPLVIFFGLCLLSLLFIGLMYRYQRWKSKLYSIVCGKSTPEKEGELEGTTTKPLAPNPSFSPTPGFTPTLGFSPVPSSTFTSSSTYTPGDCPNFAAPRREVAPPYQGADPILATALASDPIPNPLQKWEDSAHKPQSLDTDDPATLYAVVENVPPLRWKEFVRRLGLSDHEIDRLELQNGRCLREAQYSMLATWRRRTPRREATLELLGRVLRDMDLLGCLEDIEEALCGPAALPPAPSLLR
Method in brief: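 THP-1 Lucia NF-κB cells, 20k/well, no selection antibiotics; peptide pre-inc 1 h 37 °C; + recombinant human TNFα 10 ng/mL final; o.n.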

human TNFR2 ECD protein = molecular target: T2, human TNFR2 ECD protein (Homo sapiens, UniProt P20333); assay: SPR off-target binding (selectivity) to human TNFR2 ECD
T2 construct: HRV 3C protease cleavage site (C); 6His (C, cleaved yes); made in house; host or cells: Sf21 insect cells (baculovirus), secreted
T2 sequence (P20333 23-257): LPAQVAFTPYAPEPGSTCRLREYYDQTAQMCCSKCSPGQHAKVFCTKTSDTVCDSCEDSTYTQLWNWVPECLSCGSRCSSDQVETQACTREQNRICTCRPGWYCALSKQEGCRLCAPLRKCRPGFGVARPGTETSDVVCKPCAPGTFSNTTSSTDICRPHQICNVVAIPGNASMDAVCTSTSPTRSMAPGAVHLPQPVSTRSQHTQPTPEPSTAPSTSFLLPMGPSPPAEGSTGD
Method in brief: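 Biotinylated avi-tagged human TNFR1 or TNFR2 ECD, expressed in Sf21 insect cells, captured on streptavidin SPR chip; peptide analytes run in 10 mM HEPES pH 7.4, 150 mM NaCl, 3 mM EDTA, 0.05% P20, 2% DMSO. kon and koff measured, affinity KA calculated.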

COc1cccc2c([C@H](C)[C@@H]3NC(=O)CN(C)C(=O)[C@H](Cc4ccc(C(=O)O)cc4)NC(=O)[C@H](Cc4ccc(C(N)=O)cc4)NC(=O)[C@](C)(CO)NC(=O)[C@H](Cc4c[nH]c5c(C#N)cccc45)NC(=O)[C@H](Cc4ccc(C(=O)O)cc4)NC(=O)[C@H](CC(N)=O)NC(=O)[C@H]4C[C@H](O)CN4C(=O)[C@H](Cc4c[nH]c5ncccc45)NC(=O)[C@@H]4CC[C@@H](O)CN4C(=O)[C@H](Cc4ccncc4)NC(=O)[C@H](COCC4CC4)NC(=O)[C@@H]4CC[C@@H](C4)NC3=O)c[nH]c12 [SEQ ID NO. 149] (cyclo([4Pal][Pip(5R-OH)][Trp(7-aza)][dHyp]N[Phe(4-COOH)][Trp(7-CN)][αMeS][Phe(4-CONH2)][Phe(4-COOH)][Sar][Trp(βS-Me,7-OMe)][X1]S(X22)))
IC50 [1]: 1.3 nM
Kd (human TNFR2 ECD protein): > 1000 nM

CCCC[C@@H]1NC(=O)[C@@H]2CC[C@@H](C2)NC(=O)[C@H]([C@@H](C)c2c[nH]c3c(OC)cccc23)NC(=O)CN(C)C(=O)[C@H](Cc2cccc(CC(N)=O)c2)NC(=O)[C@H](Cc2ccc(C(=O)O)cc2)NC(=O)[C@](C)(CO)NC(=O)[C@H](Cc2c[nH]c3c(Cl)cccc23)NC(=O)[C@H](Cc2ccncc2)NC(=O)[C@H](CC(N)=O)NC(=O)[C@H](CCC(=O)O)N(C)C(=O)[C@H](Cc2c[nH]c3ccccc23)NC(=O)[C@@H]2CNCCN2C(=O)[C@H](Cc2ccncc2)NC1=O [SEQ ID NO. 153] (cyclo([4Pal][Trp(7-Cl)][αMeS][Phe(4-COOH)][X29][Sar][Trp(βS-Me,7-OMe)][X1][Nle][4Pal][Pip(4-aza)]W[NMeE]N))
IC50 [1]: 2.6 nM
Kd (human TNFR2 ECD protein): > 1000 nM

CCCC[C@@H]1NC(=O)[C@@H]2CC[C@@H](C2)NC(=O)[C@H]([C@@H](C)c2c[nH]c3c(OC)cccc23)NC(=O)CN(C)C(=O)[C@H]([C@H](O)c2ccc(C(=O)O)cc2)NC(=O)[C@H]([C@@H](O)c2ccc(C(N)=O)cc2)NC(=O)[C@](C)(CO)NC(=O)[C@H](Cc2c[nH]c3c(C#N)cccc23)NC(=O)[C@H](Cc2ccncc2)NC(=O)[C@H](CC(N)=O)NC(=O)[C@H]2C[C@H](O)CN2C(=O)[C@H](Cc2c[nH]c3ccccc23)NC(=O)[C@@H]2CC[C@@H](O)CN2C(=O)[C@H](Cc2ccncc2)NC1=O [SEQ ID NO. 155] (cyclo([4Pal][Trp(7-CN)][αMeS][X28][X24][Sar][Trp(βS-Me,7-OMe)][X1][Nle][4Pal][Pip(5R-OH)]W[dHyp]N))
IC50 [1]: 0.9 nM
Kd (human TNFR2 ECD protein): > 1000 nM

CCCC[C@@H]1NC(=O)CSC[C@@H](C(N)=O)NC(=O)[C@H]([C@@H](C)c2c[nH]c3c(OC)cccc23)NC(=O)CN(C)C(=O)[C@H](Cc2ccc(O)cc2)NC(=O)[C@H](Cc2ccc(C(=O)O)cc2)NC(=O)[C@](C)(CO)NC(=O)[C@H](Cc2c[nH]c3c(Cl)cccc23)NC(=O)[C@H](Cc2ccncc2)NC(=O)[C@H](CC(N)=O)NC(=O)CN(CCCC(=O)O)C(=O)[C@H](Cc2c[nH]c3ncccc23)NC(=O)[C@@H]2CCCCN2C(=O)[C@H](Cc2ccncc2)NC1=O [SEQ ID NO. 157] ({CH2CO}-[Nle][4Pal][Pip][Trp(7-aza)][Gly(N(CH2)3COOH)]N[4Pal][Trp(7-Cl)][αMeS][Phe(4-COOH)]Y[Sar][Trp(βS-Me,7-OMe)]C-NH2; thioether N-14)
IC50 [1]: 4 nM
Kd (human TNFR2 ECD protein): > 1000 nM

CCCC[C@@H]1NC(=O)[C@@H]2CC[C@@H](C2)NC(=O)[C@H]([C@@H](C)c2c[nH]c3c(OC)cccc23)NC(=O)CN(C)C(=O)[C@H](Cc2ccc(C(=O)O)cc2)NC(=O)[C@H](Cc2ccc(C(N)=O)cc2)NC(=O)[C@](C)(CO)NC(=O)[C@H](Cc2c[nH]c3c(Cl)cccc23)NC(=O)[C@H](Cc2ccncn2)NC(=O)[C@H](CC(N)=O)NC(=O)[C@H]2C[C@H](O)CN2C(=O)[C@H](Cc2c[nH]c3ncccc23)NC(=O)[C@@H]2CC[C@@H](O)CN2C(=O)[C@H](Cc2ccncc2)NC1=O [SEQ ID NO. 159] (cyclo([4Pal][Pip(5R-OH)][Trp(7-aza)][dHyp]N[X19][Trp(7-Cl)][αMeS][Phe(4-CONH2)][Phe(4-COOH)][Sar][Trp(βS-Me,7-OMe)][X1][Nle]))
IC50 [1]: 0.8 nM
Kd (human TNFR2 ECD protein): > 1000 nM
